Assay: xn = mol fraction of the nth substance listed
Conditions: 100 kPa, Liquid; for mass density: Vibrating tube method; for viscosity: Capillary tube (Ostwald / Ubbelohde) method

O=C1CCCO1 [γ-butyrolactone] + CN1CCCC1=O
Conditions	mass density [kg/m3]	viscosity [mPa·s]
308.15 K, x2 = 0.4953	1061.64	–
308.15 K, x2 = 0.5983	1052.28	–
308.15 K, x2 = 0.6977	1043.71	–
308.15 K, x2 = 0.8022	1035.14	–
308.15 K, x2 = 0.851	1031.26	–
308.15 K, x2 = 0.9418	1024.11	–
313.15 K, x2 = 0	1109.23	1.42
313.15 K, x2 = 0.1002	–	1.404
313.15 K, x2 = 0.1011	1097.36	–
313.15 K, x2 = 0.1484	1092.04	–
313.15 K, x2 = 0.2002	–	1.391
313.15 K, x2 = 0.2506	1081.02	–
313.15 K, x2 = 0.3027	1075.61	–
313.15 K, x2 = 0.3078	–	1.379
313.15 K, x2 = 0.3999	–	1.37
313.15 K, x2 = 0.4002	1065.84	–
313.15 K, x2 = 0.4953	1056.76	–
313.15 K, x2 = 0.4998	–	1.361
313.15 K, x2 = 0.5983	1047.44	–
313.15 K, x2 = 0.6003	–	1.354
313.15 K, x2 = 0.6977	1038.91	–
313.15 K, x2 = 0.7002	–	1.348
313.15 K, x2 = 0.8011	–	1.344
313.15 K, x2 = 0.8022	1030.36	–
313.15 K, x2 = 0.851	1026.5	–
313.15 K, x2 = 0.8998	–	1.34
313.15 K, x2 = 0.9418	1019.36	–
318.15 K, x2 = 0	1104.1	1.35
318.15 K, x2 = 0.1002	–	1.331
318.15 K, x2 = 0.1011	1092.31	–
318.15 K, x2 = 0.1484	1087.03	–
318.15 K, x2 = 0.2002	–	1.316
318.15 K, x2 = 0.2506	1076.08	–
318.15 K, x2 = 0.3027	1070.71	–
318.15 K, x2 = 0.3078	–	1.302
318.15 K, x2 = 0.3999	–	1.291
318.15 K, x2 = 0.4002	1061.01	–
318.15 K, x2 = 0.4953	1051.99	–
318.15 K, x2 = 0.4998	–	1.28
318.15 K, x2 = 0.5983	1042.73	–
318.15 K, x2 = 0.6003	–	1.271
318.15 K, x2 = 0.6977	1034.27	–
318.15 K, x2 = 0.7002	–	1.263
318.15 K, x2 = 0.8011	–	1.256
318.15 K, x2 = 0.8022	1025.76	–
318.15 K, x2 = 0.851	1021.91	–
318.15 K, x2 = 0.8998	–	1.251
318.15 K, x2 = 0.9418	1014.8	–
323.15 K, x2 = 0	1098.88	1.3
323.15 K, x2 = 0.1002	–	1.278
323.15 K, x2 = 0.1011	1087.72	–
323.15 K, x2 = 0.1484	1082	–
323.15 K, x2 = 0.2002	–	1.261
323.15 K, x2 = 0.2506	1071.16	–
323.15 K, x2 = 0.3027	1065.83	–
323.15 K, x2 = 0.3078	–	1.245
323.15 K, x2 = 0.3999	–	1.232
323.15 K, x2 = 0.4002	1056.23	–
323.15 K, x2 = 0.4953	1047.31	–
323.15 K, x2 = 0.4998	–	1.219
323.15 K, x2 = 0.5983	1038.15	–
323.15 K, x2 = 0.6003	–	1.208
323.15 K, x2 = 0.6977	1029.76	–
323.15 K, x2 = 0.7002	–	1.198
323.15 K, x2 = 0.8011	–	1.189
323.15 K, x2 = 0.8022	1021.34	–
323.15 K, x2 = 0.851	1017.51	–
323.15 K, x2 = 0.8998	–	1.182
323.15 K, x2 = 0.9418	1010.46	–
